Source: patent publication US7675626B2, “Method of detecting drug resistant microorganisms by surface plasmon resonance system” (priority 2006, dated 2010)
Where “and” joins values, the source holds several entries; their conditions need not be identical. Equal entries are not always repeated.

Columns and labels:
[1] = test system: ampicillin resistant strain (JM109 transformed by ampicillin resistant plasmid); test: SPR angle shift, ampicillin resistance test (resistant strain); format: cell-based, E. coli
Description: (§1) On setting up the surface plasmon resonance, a He—Ne laser (wavelength=632.8 nm) was used as the light source. The laser beam passed through the polarizer to block […], and only p-polarization component could excite surface plasmon. The transmitted p-polarization beam was split into two beams via beam splitter (BS), one beam was detected by photodiode as reference light, and the other beam injected into prism at specific range of angles to decide surface plasmon angle. The reflected light was detected via the photodiode in the opposite side of prism as signal light. Surface plasmon was excited on Au metal film deposited on flat glass surface which attached on prism via matching oil. The current signal detected by photodiode was expanded via amplifier and transformed into voltage signal via 16-bit A/D converter (Adventech PCI-1716) The Y-axial represented the ratio of reference light and signal light, X-axial represented the incident angle of interface between prism and sample. Incident angle was controlled by controller which motor motorized stage with two arms. When surface plasmon resonance angle was detected, the energy of injected light was absorbed and surface plasmon resonance was achieved. This experimental setup was build by National Cheng-Kung University, department of Engineering Science, Adaptic Photonic Lab.
(§2) The bacteria used herein were JM109 strain, which was recA1 mutation that helped ensure insert stability. EndA1 mutation improved the quality of the plasmid miniprep DNA. HsdR17 mutation prevented the cleavage of cloned DNA by an endogenous endonuclease system.
(§3) Penicillin was referred to β-lactam drugs because of the importance of the β-lactam ring. An intact ting structure was essential for antibacterial activity. The cleavage of the ring by penicillinase (β-lactamase) inactivated the drug. The antibiotic bacteria strain used herein was transformed by ampicillin resistant plasmid that translated β-lactamase to cleave the ring of ampicillin. The bacteria was picked out by loop and planted in 5 ml LB broth over night, then transferred into 100 ml LB and incubated for two hours.
(§4) Diluted Poly-L-Lysine solution with deionized water prior to coating slides. The flat glass surface deposited with Au metal film was immersed in poly-L-lysine solution (concentration is […]) for at least 24 hours to interact with Au metal film, cells can be immobilized on biochips after incubation.
(§5) The sterilized DI water was injected into the flow chamber for 30 min to stabilize the system when biochip coated with poly-L-lysine was assembled. After balancing, the incubated LA broth was injected into the flow chamber for 210 minutes to cover the AU metal film. Subsequently, antibiotic solution was injected, and the surface plasmon resonance curve was observed on the computer.
(§6) Surface plasmon resonance system measured SPR angle continuously, and compared SPR curve of antibiotic susceptible and antibiotic resistant strain under the same condition. The SPR curve of antibiotic resistant strain was depicted in FIG. 2, and antibiotic susceptible strain SPR curve was depicted in FIG. 3. Experimental data represented that after 30 minutes of balance of the SPR system, the injection of bacteria LB broth increased the SPR angle. After 210 minutes, the extra bacteria were washed with deionized water and presented the decrease of SPR angle, then balanced for 10-20 minutes. Antibiotic solution was injected after the balance curve. […]

[2] = test system: ampicillin susceptible strain (JM109); test: SPR angle shift, ampicillin sensitivity test (susceptible strain); format: cell-based, E. coli; details: for susceptible surface plasmon resonance angle shift/resistant surface plasmon resonance angle shift: ratio susceptible/resistant strain
Description: as §1, §2, §3, §4, §5, §6

CC1(C)S[C@@H]2[C@H](NC(=O)[C@H](N)c3ccccc3)C(=O)N2[C@H]1C(=O)O [ampicillin]
Ampicillin resistant surface plasmon resonance angle shift ([1]; Average of 4 repeats): −0.02935
drop of SPR angle ([1]; standard kinetic plot (FIG. 2), after injection of antibiotics): −0.02128 degree
drop of SPR angle of resistant strain compared to susceptible strain ([1]; standard kinetic plot (FIGS. 2, 3)): approximately ⅓
drop of SPR angle of resistant strain compared to susceptible strain ([1]; thirty minutes after antibiotic treatment): approximately ⅕
drop of SPR angle ([1]; thirty minutes after antibiotic treatment (FIG. 4)): −0.00332 degree
Ampicillin susceptible surface plasmon resonance angle shift ([2]; Average of 4 repeats): −0.0659
susceptible surface plasmon resonance angle shift/resistant surface plasmon resonance angle shift ([2]; Average of 4 repeats): 2.377
susceptible surface plasmon resonance angle shift/resistant surface plasmon resonance angle shift ([2]; single repeat experiments): 1.9834 and 2.6208 and 3.2312 and 1.6729
drop of SPR angle ([2]; standard kinetic plot (FIG. 3), after injection of antibiotics): −0.06876 degree
drop of SPR angle ([2]; thirty minutes after antibiotic treatment (FIG. 5)): −0.01702 degree
